In brackets after ≈: the same amount, converted by molar mass.
Key:
[1] = system: Acinetobacter calcoaceticus IFO 12552; assay: antimicrobial spectrum (minimal inhibitory concentration); assay type: cell-based; conditions: IFO12552, pH 7.0
Excerpt: (§1) The antimicrobial spectra of the compound (I) are shown in Table 1. | *Culture medium: 17.5 g of Bacto antibiotic medium 3 (Difco), 5 g of | Bacto yeast extract (Difco), 20 g of Bacto agar (Difco), 1 l of distilled | water; pH 7.0 | The amount of inoculated microorganism: 1 loopful of about 10^6 /ml o | microorganism suspension.

[2] = system: Alcaligenes faecalis IFO 13111; assay: as above; assay type: cell-based; conditions: IFO13111, pH 7.0
Excerpt: as §1

[3] = system: Bacillus megaterium IFO 12108; assay: as above; assay type: cell-based; conditions: Priestia megaterium, IFO12108, pH 7.0
Excerpt: as §1

[4] = system: Bacillus subtilis NIHJ PCI219; assay: as above; assay type: cell-based; conditions: NIHJPCI219, pH 7.0
Excerpt: as §1

[5] = system: Brevibacterium thiogenitalis ATCC 19240; assay: as above; assay type: cell-based; conditions: Corynebacterium glutamicum, ATCC19240, pH 7.0
Excerpt: as §1

[6] = system: Citrobacter freundii IFO 12681; assay: as above; assay type: cell-based; conditions: IFO12681, pH 7.0
Excerpt: as §1

[7] = system: Escherichia coli NIHJ JC-2; assay: as above; assay type: cell-based; conditions: NIHJJC2, pH 7.0
Excerpt: as §1

[8] = system: Klebsiella pneumoniae IFO 3317; assay: as above; assay type: cell-based; conditions: IFO3317, pH 7.0
Excerpt: as §1

[9] = system: Proteus vulgalis IFO 3988; assay: as above; assay type: cell-based; conditions: pH 7.0
Excerpt: as §1

[10] = system: Pseudomonas aeruginosa IFO 3080; assay: as above; assay type: cell-based; conditions: IFO3080, pH 7.0
Excerpt: as §1

[11] = system: Salmonella typhimurium IFO 12529; assay: as above; assay type: cell-based; conditions: Salmonella enterica, pH 7.0
Excerpt: as §1

[12] = system: Serratia marcescens IFO 12648; assay: as above; assay type: cell-based; conditions: IFO12648, pH 7.0
Excerpt: as §1

[13] = system: Staphylococcus aureus FDA 209P; assay: as above; assay type: cell-based; conditions: FDA209P, pH 7.0
Excerpt: as §1

Escherichia coli 0-111 = assay: therapeutic effect to infectious disease of mice; assay type: in vivo; conditions: 0111; mice infected with Escherichia coli 0-111; subcutaneous (SC); TAN-547 hydrochloride(s)
[14] = system: β-lactamase produced by Escherichia coli TN 713; assay: stability to β-lactamase (relative ratio of hydrolysis rate); assay type: biochemical; conditions: PCG rated at 100
Excerpt: (§2) In the above Table 3, the stabilities against the β-lactamase produced by Escherichia coli TN 713 and β-lactamase produced by Klebsiella oxytoca TN 1719 are expressed on a numerical scale, whereby the stabilities of PCG against these are rated at 100. Also, the stabilities against the β-lactamase produced by Serratia marcescens and β-lactamase produced by Proteus vulgaris are expressed on a numerical scale, whereby the stabilities of CER against these are rated at 100.

[15] = system: β-lactamase produced by Klebsiella oxytoca TN 1719; assay: as above; assay type: biochemical; conditions: PCG rated at 100
Excerpt: as §2

[16] = system: β-lactamase produced by Proteus vulgalis GN 4413; assay: as above; assay type: biochemical; conditions: CER rated at 100
Excerpt: as §2

[17] = system: β-lactamase produced by Serratia marcescens TN 81; assay: as above; assay type: biochemical; conditions: CER rated at 100
Excerpt: as §2

β-lactamase = assay: stability to β-lactamase (overall statement); assay type: biochemical; conditions: as seen from Table 3
Excerpt: as §2

[18] = acute toxicity, subcutaneous administration to mice; assay type: in vivo; conditions: subcutaneously, 1 g/kg
solubility = assay type: physicochemical
[19] = stability in aqueous solution; assay type: physicochemical
[20] = property of the substance (amphoteric); assay type: physicochemical; conditions: dihydrochloride is neutral

`CC(N)C(=O)NC(C)C(=O)NC(C)C(=O)NC(CCCNC(=N)N)C(O)CC(=O)OCC1=C(C(=O)O)N2C(=O)C(NC=O)(NC(=O)CCCC(N)C(=O)O)C2SC1` (centres unmarked) [TAN-547 C] showed an MIC [1] of 6.25 µg/mL (≈ 7.53 µM), an MIC [2] of 12.5 µg/mL (≈ 15.1 µM) and an MIC [3] of 12.5 µg/mL (≈ 15.1 µM). For the same compound, the MIC [4] was 12.5 µg/mL (≈ 15.1 µM), the MIC [5] was 12.5 µg/mL (≈ 15.1 µM) and the MIC [6] was 50 µg/mL (≈ 60.2 µM). It also gave an MIC [7] of 25 µg/mL (≈ 30.1 µM), an MIC [8] of 50 µg/mL (≈ 60.2 µM) and an MIC [9] of 50 µg/mL (≈ 60.2 µM). For the same compound, the MIC [10] was over 50 µg/mL, the MIC [11] was 25 µg/mL (≈ 30.1 µM) and the MIC [12] was 50 µg/mL (≈ 60.2 µM). For the same compound, the MIC [13] was over 50 µg/mL, the ED50 (Escherichia coli 0-111) was 16.2 mg/kg and the “Relative ratio of hydrolysis rate” value [14] was under 0.01. For the same compound, the “Relative ratio of hydrolysis rate” value [15] was under 0.01, the “Relative ratio of hydrolysis rate” value [16] was under 0.01 and the “Relative ratio of hydrolysis rate” value [17] was under 0.01. The “stability to β-lactamase” value (β-lactamase) was “remarkably stable”, the death [18] was “no death was observed” and the Solubility (solubility; dimethylsulfoxide, methanol, acetone, ethyl acetate) was “Hardly soluble”. For the same compound, the Solubility (solubility; water, aqueous acetone, aqueous alcohol) was “Easily soluble”, the Stability ([19]; acidic aqueous solution) was “Unstable” and the Stability ([19]; basic aqueous solution) was “Unstable”. The Stability ([19]; neutral aqueous solution) was “slightly unstable” and the “Property of the substance” value [20] was “Amphoteric substance”.

From patent publication US4587333A, “Cephalosporins and their production” (Takeda Chemical Industries, Ltd., priority 1983, dated 1986)
